In patent US11000033B2, “Ketone or oxime compound, and herbicide” (NISSAN CHEMICAL CORPORATION, priority 2014, dated 2021):

Experiments:
Assay type in all cases: in vivo
[1] = test system: Echinochloa crus-galli var. crus-galli; assay: Test Example 3: herbicidal effect by foliage application, Wagner pot (symbol H); conditions: application herbicide amount 320 g/ha
Outline: (§1)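 Rating at 3 weeks post-spray, by defined criteria. Treatment: emulsion diluted with water to a predetermined amount, applied evenly to foliage of 14-day-old plants raised in alluvial soil flooded 0.1–0.5 cm deep at 25–30 °C, rice co-sown.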

Leptochloa chinensis = assay: Test Example 3: herbicidal effect by foliage application, Wagner pot (symbol D); conditions: application herbicide amount 320 g/ha
Outline: as §1

Cyperus difformis = assay: Test Example 3: herbicidal effect by foliage application, Wagner pot (symbol E); conditions: application herbicide amount 320 g/ha
Outline: as §1

[2] = test system: directly sowed rice plant; assay: Test Example 3: effect on crop by foliage application, Wagner pot (symbol b); conditions: application herbicide amount 320 g/ha
Outline: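 Greenhouse culture at 25–30 °C of seeded rice, Cyperus difformis, Leptochloa chinensis and Echinochloa crus-galli var. crus-galli, in alluvial soil held under 0.1–0.5 cm of water in a Wagner pot.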

Digitaria ciliaris = assay: Test Example 5: herbicidal effect by foliage application, plastic box (symbol F); conditions: 320 g/ha, 3 weeks after application
Description: (§2) Herbicidal Effect Test by Foliage Application
(§3) Sterilized diluvial soil was placed in a plastic box having a length of 21 cm, a width of 13 cm, and a depth of 7 cm. Each of the seeds of Digitaria ciliaris, Setaria viridis, Echinochloa crus-galli var. crus-galli, Avena fatua, Alopecurus myosuroides, Lolium multiflorum Lam., Apera spica-venti, Abutilon theophrasti, Amaranthus retroflexus, Chenopodium album, Stellaria media, Galium spurium, Veronica persica, corn, soybean, rice plant, wheat, beet, and rapeseed was sowed in a spot-like manner and was covered with the soil of a thickness of about 1.5 cm. Thereafter, the plants were grown in the greenhouse of 25° C. to 30° C. After the plants were grown for 14 days, the emulsion agent of the compound of the present invention prepared in accordance with Formulation Example 2 was diluted with water so as to be a predetermined herbicide amount and the diluted emulsion agent was uniformly applied to a foliage part with a small-size spray. 3 weeks later from the herbicide application, the effect to each plant was investigated in accordance with the criteria of Test Example 1.

Setaria viridis = assay: Test Example 5: herbicidal effect by foliage application, plastic box (symbol G); conditions: 320 g/ha, 3 weeks after application
Description: as §2, §3

[3] = test system: Echinochloa crus-galli var. crus-galli; assay: Test Example 5: herbicidal effect by foliage application, plastic box (symbol H); conditions: 320 g/ha, 3 weeks after application
Description: as §2, §3

Avena fatua = assay: Test Example 5: herbicidal effect by foliage application, plastic box (symbol I); conditions: 320 g/ha, 3 weeks after application
Description: as §2, §3

Alopecurus myosuroides = assay: Test Example 5: herbicidal effect by foliage application, plastic box (symbol J); conditions: 320 g/ha, 3 weeks after application
Description: as §2, §3

Lolium multiflorum Lam. = assay: Test Example 5: herbicidal effect by foliage application, plastic box (symbol K); conditions: 320 g/ha, 3 weeks after application
Description: as §2, §3

Apera spica-venti = assay: Test Example 5: herbicidal effect by foliage application, plastic box (symbol L); conditions: 320 g/ha, 3 weeks after application
Description: as §2, §3

Abutilon theophrasti = assay: Test Example 5: herbicidal effect by foliage application, plastic box (symbol M); conditions: 320 g/ha, 3 weeks after application
Description: as §2, §3

Amaranthus retroflexus = assay: Test Example 5: herbicidal effect by foliage application, plastic box (symbol N); conditions: 320 g/ha, 3 weeks after application
Description: as §2, §3

Chenopodium album = assay: Test Example 5: herbicidal effect by foliage application, plastic box (symbol O); conditions: 320 g/ha, 3 weeks after application
Description: as §2, §3

Stellaria media = assay: Test Example 5: herbicidal effect by foliage application, plastic box (symbol P); conditions: 320 g/ha, 3 weeks after application
Description: as §2, §3

Galium spurium = assay: Test Example 5: herbicidal effect by foliage application, plastic box (symbol Q); conditions: 320 g/ha, 3 weeks after application
Description: as §2, §3

Veronica persica = assay: Test Example 5: herbicidal effect by foliage application, plastic box (symbol R); conditions: 320 g/ha, 3 weeks after application
Description: as §2, §3

corn = assay: Test Example 5: effect on crop by foliage application, plastic box (symbol c); conditions: 320 g/ha, 3 weeks after application
Description: as §2
(§4) Sterilized diluvial soil was placed in a plastic box having a length of 21 cm, a width of 13 cm, and a depth of 7 cm. Each of the seeds of Digitaria ciliaris, Setaria viridis, Echinochloa crus-galli var. crus-galli, Avena fatua, Alopecurus myosuroides, Lolium multiflorum Lam., Apera spica-venti, Abutilon theophrasti, Amaranthus retroflexus, Chenopodium album, Stellaria media, Galium spurium, Veronica persica, corn, soybean, rice plant, wheat, beet, and rapeseed was sowed in a spot-like manner and was covered with the soil of a thickness of about 1.5 cm. Thereafter, the plants were grown in the greenhouse of 25° C. to 30° C.

soybean = assay: Test Example 5: effect on crop by foliage application, plastic box (symbol d); conditions: 320 g/ha, 3 weeks after application
Description: as §2, §4

rice plant = assay: Test Example 5: effect on crop by foliage application, plastic box (symbol b); conditions: 320 g/ha, 3 weeks after application
Description: as §2, §4

wheat = assay: Test Example 5: effect on crop by foliage application, plastic box (symbol e); conditions: 320 g/ha, 3 weeks after application
Description: as §2, §4

beet = assay: Test Example 5: effect on crop by foliage application, plastic box (symbol f); conditions: 320 g/ha, 3 weeks after application
Description: as §2, §4

rapeseed = assay: Test Example 5: effect on crop by foliage application, plastic box (symbol g); conditions: 320 g/ha, 3 weeks after application
Description: as §2, §4

SMILES	herbicidal effect on H (Echinochloa crus-galli var. crus-galli), grade 0-5 [1]	herbicidal effect on D (Leptochloa chinensis), grade 0-5 (Leptochloa chinensis)	herbicidal effect on E, grade 0-5 (Cyperus difformis)	effect on crop b (directly sowed rice plant), grade 0-5 [2]	F: Digitaria ciliaris, herbicidal effect (criteria of Test Example 1) (Digitaria ciliaris)	G: Setaria viridis, herbicidal effect (criteria of Test Example 1) (Setaria viridis)	H: Echinochloa crus-galli var. crus-galli, herbicidal effect (criteria of Test Example 1) [3]	I: Avena fatua, herbicidal effect (criteria of Test Example 1) (Avena fatua)	J: Alopecurus myosuroides, herbicidal effect (criteria of Test Example 1) (Alopecurus myosuroides)	K: Lolium multiflorum Lam., herbicidal effect (criteria of Test Example 1) (Lolium multiflorum Lam.)	L: Apera spica-venti, herbicidal effect (criteria of Test Example 1) (Apera spica-venti)	M: Abutilon theophrasti, herbicidal effect (criteria of Test Example 1) (Abutilon theophrasti)	N: Amaranthus retroflexus, herbicidal effect (criteria of Test Example 1) (Amaranthus retroflexus)	O: Chenopodium album, herbicidal effect (criteria of Test Example 1) (Chenopodium album)	P: Stellaria media, herbicidal effect (criteria of Test Example 1) (Stellaria media)	Q: Galium spurium, herbicidal effect (criteria of Test Example 1) (Galium spurium)	R: Veronica persica, herbicidal effect (criteria of Test Example 1) (Veronica persica)	c: corn, effect on crop (criteria of Test Example 1) (corn)	d: soybean, effect on crop (criteria of Test Example 1) (soybean)	b: directly sowed rice plant, effect on crop (criteria of Test Example 1) (rice plant)	other results
CCOC(=O)C(C(=O)C1CCCCC1)C1CC(O)=C(c2c(C)cc(C)cc2C)C1=O (centres unmarked) [2-029]	0 (Herbicidal ratio of 5% or lower (almost no effect))	0 (Herbicidal ratio of 5% or lower (almost no effect))	0 (Herbicidal ratio of 5% or lower (almost no effect))	4 (Herbicidal ratio of 70% or higher and lower than 90%)	–	–	–	–	–	–	–	–	–	–	–	–	–	–	–	–	F: Digitaria ciliaris, herbicidal effect grade (Digitaria ciliaris): 0 (Herbicidal ratio of 5% or lower (almost no effect)); G: Setaria viridis, herbicidal effect grade (Setaria viridis): 0 (Herbicidal ratio of 5% or lower (almost no effect)); H: Echinochloa crus-galli var. crus-galli, herbicidal effect grade [3]: 0 (Herbicidal ratio of 5% or lower (almost no effect)); I: Avena fatua, herbicidal effect grade (Avena fatua): 2 (Herbicidal ratio of 20% or higher and lower than 40%); J: Alopecurus myosuroides, herbicidal effect grade (Alopecurus myosuroides): 0 (Herbicidal ratio of 5% or lower (almost no effect)); K: Lolium multiflorum Lam., herbicidal effect grade (Lolium multiflorum Lam.): 1 (Herbicidal ratio of 5% or higher and lower than 20%); L: Apera spica-venti, herbicidal effect grade (Apera spica-venti): 0 (Herbicidal ratio of 5% or lower (almost no effect)); M: Abutilon theophrasti, herbicidal effect grade (Abutilon theophrasti): 0 (Herbicidal ratio of 5% or lower (almost no effect)); N: Amaranthus retroflexus, herbicidal effect grade (Amaranthus retroflexus): 0 (Herbicidal ratio of 5% or lower (almost no effect)); O: Chenopodium album, herbicidal effect grade (Chenopodium album): 0 (Herbicidal ratio of 5% or lower (almost no effect)); P: Stellaria media, herbicidal effect grade (Stellaria media): 0 (Herbicidal ratio of 5% or lower (almost no effect)); Q: Galium spurium, herbicidal effect grade (Galium spurium): 0 (Herbicidal ratio of 5% or lower (almost no effect)); R: Veronica persica, herbicidal effect grade (Veronica persica): 0 (Herbicidal ratio of 5% or lower (almost no effect)); c: corn, effect on crop grade (corn): 0 (Herbicidal ratio of 5% or lower (almost no effect)); d: soybean, effect on crop grade (soybean): 0 (Herbicidal ratio of 5% or lower (almost no effect)); b: directly sowed rice plant, effect on crop grade (rice plant): 2 (Herbicidal ratio of 20% or higher and lower than 40%); e: wheat, effect on crop grade (wheat): 0 (Herbicidal ratio of 5% or lower (almost no effect)); f: beet, effect on crop grade (beet): 0 (Herbicidal ratio of 5% or lower (almost no effect)); g: rapeseed, effect on crop grade (rapeseed): 0 (Herbicidal ratio of 5% or lower (almost no effect))
CC(=O)CC1CC(O)=C(c2c(C)cc(-n3ccnc3)cc2C)C1=O (centres unmarked) [7-025]	1 (Herbicidal ratio of 5% or higher and lower than 20%)	3 (Herbicidal ratio of 40% or higher and lower than 70%)	0 (Herbicidal ratio of 5% or lower (almost no effect))	0 (Herbicidal ratio of 5% or lower (almost no effect))	3 (Herbicidal ratio of 40% or higher and lower than 70%)	0 (Herbicidal ratio of 5% or lower (almost no effect))	0 (Herbicidal ratio of 5% or lower (almost no effect))	0 (Herbicidal ratio of 5% or lower (almost no effect))	0 (Herbicidal ratio of 5% or lower (almost no effect))	0 (Herbicidal ratio of 5% or lower (almost no effect))	0 (Herbicidal ratio of 5% or lower (almost no effect))	0 (Herbicidal ratio of 5% or lower (almost no effect))	0 (Herbicidal ratio of 5% or lower (almost no effect))	0 (Herbicidal ratio of 5% or lower (almost no effect))	0 (Herbicidal ratio of 5% or lower (almost no effect))	0 (Herbicidal ratio of 5% or lower (almost no effect))	0 (Herbicidal ratio of 5% or lower (almost no effect))	0 (Herbicidal ratio of 5% or lower (almost no effect))	0 (Herbicidal ratio of 5% or lower (almost no effect))	0 (Herbicidal ratio of 5% or lower (almost no effect))	e: wheat, effect on crop (criteria of Test Example 1) (wheat): 0 (Herbicidal ratio of 5% or lower (almost no effect)); f: beet, effect on crop (criteria of Test Example 1) (beet): 0 (Herbicidal ratio of 5% or lower (almost no effect)); g: rapeseed, effect on crop (criteria of Test Example 1) (rapeseed): 0 (Herbicidal ratio of 5% or lower (almost no effect))
CON=C(C)CC1CC(O)=C(c2c(C)cc(-c3ccncc3)cc2C)C1=O (centres unmarked) [6-105]	3 (Herbicidal ratio of 40% or higher and lower than 70%)	4 (Herbicidal ratio of 70% or higher and lower than 90%)	–	4 (Herbicidal ratio of 70% or higher and lower than 90%)	5 (Herbicidal ratio of 90% or more (almost completely withered))	5 (Herbicidal ratio of 90% or more (almost completely withered))	5 (Herbicidal ratio of 90% or more (almost completely withered))	2 (Herbicidal ratio of 20% or higher and lower than 40%)	2 (Herbicidal ratio of 20% or higher and lower than 40%)	4 (Herbicidal ratio of 70% or higher and lower than 90%)	2 (Herbicidal ratio of 20% or higher and lower than 40%)	0 (Herbicidal ratio of 5% or lower (almost no effect))	0 (Herbicidal ratio of 5% or lower (almost no effect))	0 (Herbicidal ratio of 5% or lower (almost no effect))	0 (Herbicidal ratio of 5% or lower (almost no effect))	3 (Herbicidal ratio of 40% or higher and lower than 70%)	3 (Herbicidal ratio of 40% or higher and lower than 70%)	3 (Herbicidal ratio of 40% or higher and lower than 70%)	0 (Herbicidal ratio of 5% or lower (almost no effect))	3 (Herbicidal ratio of 40% or higher and lower than 70%)	e: wheat, effect on crop (criteria of Test Example 1) (wheat): 0 (Herbicidal ratio of 5% or lower (almost no effect)); f: beet, effect on crop (criteria of Test Example 1) (beet): 0 (Herbicidal ratio of 5% or lower (almost no effect)); g: rapeseed, effect on crop (criteria of Test Example 1) (rapeseed): 4 (Herbicidal ratio of 70% or higher and lower than 90%)
